Measurements from patent US20260083704A1, “LXR MODULATORS WITH BICYCLIC CORE MOIETY FOR TREATING DYSLIPIDEMIAS” (OrsoBio, Inc., priority 2022, published 2026).

Tests used:
[1] = target: T1, GST-LXRβ ligand-binding domain (Homo sapiens, UniProt P55055); test: TR-FRETβ activity assay (NCoA3 coactivator peptide recruitment); assay type: biochemical; conditions: 1 μM 24(S)-25-epoxycholesterol prestimulation
T1 construct: amino acids 156-461; NP009052; made in house; host or cells: E. coli
T1 sequence (P55055 156-460 limits assumed): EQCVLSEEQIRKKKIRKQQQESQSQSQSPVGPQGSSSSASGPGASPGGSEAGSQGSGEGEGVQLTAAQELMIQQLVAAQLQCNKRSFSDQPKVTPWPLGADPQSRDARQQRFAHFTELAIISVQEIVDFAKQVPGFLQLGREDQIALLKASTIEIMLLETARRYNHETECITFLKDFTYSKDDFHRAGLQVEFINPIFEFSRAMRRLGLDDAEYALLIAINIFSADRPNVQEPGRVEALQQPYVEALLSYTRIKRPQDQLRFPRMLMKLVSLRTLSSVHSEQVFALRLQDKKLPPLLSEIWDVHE
How it was run: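 E. coli-expressed GST-LXRβ LBD (aa 156-461, 76 nM) with biotinylated NCoA3 peptide (400 nM) in Tris/HCl pH 6.8 containing 1 μM 24(S)-25-epoxycholesterol agonist. Compounds tested at 50 μM down to 0.002 μM in triplicate. TR-FRET (Tb cryptate/XL665, ex 340, em 615/665 nm) read after 1 h at 4° C.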

LXRβ = target: T2, LXRβ (Homo sapiens, UniProt P55055); test: LXR Gal4 reporter transient transfection assay (mammalian two-hybrid, HEK293), LXRβ; assay type: cell-based; set-up: LXRβ (amino acids 156-461); expressed in transfected cells; host or cells: HEK293; conditions: full length (FL) LXRβ, HEK293; read-out: FL-M2H Gal4β
T2 sequence (P55055 1-460): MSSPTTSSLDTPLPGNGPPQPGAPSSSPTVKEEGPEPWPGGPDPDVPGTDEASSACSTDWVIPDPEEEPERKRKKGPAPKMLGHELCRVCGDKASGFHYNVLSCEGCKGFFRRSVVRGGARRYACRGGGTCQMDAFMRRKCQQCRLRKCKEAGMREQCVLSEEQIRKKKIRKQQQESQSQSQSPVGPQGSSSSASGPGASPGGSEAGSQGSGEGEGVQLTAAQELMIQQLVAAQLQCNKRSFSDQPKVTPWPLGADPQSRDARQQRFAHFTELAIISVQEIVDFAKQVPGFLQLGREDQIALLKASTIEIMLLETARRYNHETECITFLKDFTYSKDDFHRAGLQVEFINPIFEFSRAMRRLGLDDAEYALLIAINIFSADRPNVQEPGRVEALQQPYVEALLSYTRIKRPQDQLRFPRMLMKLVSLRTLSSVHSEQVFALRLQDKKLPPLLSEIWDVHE
How it was run: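 HEK293 cells transiently co-transfected with full-length or LBD LXRα/LXRβ fused to NFkB activation domain, GAL4-DBD-fused SRC1 or NCoR cofactor domain, GAL4-responsive firefly luciferase reporter and Renilla control. Compound added 4 h post-transfection (≤0.2% DMSO), incubated 16 h; firefly and Renilla luminescence read sequentially.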

| Compound | EC50 [1] [nM] | EC50 (LXRβ) [nM] |
| --- | --- | --- |
| Cc1ccc(S(=O)(=O)n2c(-c3cccc(-c4ccc(C(=O)O)cc4Cl)c3)c(-c3c(C)cccc3C#N)c3cc(F)ccc32)cc1 [11/6] | < 100 | < 100 |
| N#Cc1sccc1-c1c(-c2cccc(-c3cc(F)c(C(=O)O)cc3Cl)c2)n(S(=O)(=O)c2ccc(CF)cc2)c2ccc(F)cc12 [11/7] | < 100 | < 100 |
| N#Cc1sccc1-c1c(-c2cccc(-c3cc(F)c(C(=O)O)cc3Cl)c2)n(S(=O)(=O)c2ccc(C(F)F)cc2)c2ccc(F)cc12 [11/8] | < 100 | < 100 |
| N#Cc1scnc1-c1c(-c2cccc(-c3cc(F)c(C(=O)O)cc3Cl)c2)n(S(=O)(=O)c2ccc(C(F)F)cc2)c2ccc(F)cc12 [11/9] | < 100 | < 100 |
| N#Cc1ccncc1-c1c(-c2cccc(-c3cc(F)c(C(=O)O)cc3Cl)c2)n(S(=O)(=O)c2ccc(C(F)F)cc2)c2ccc(F)cc12 [11/10] | < 100 | < 100 |
| Cc1cccc(C)c1-c1c(-c2cccc(-c3ccc(C(=O)O)cc3Cl)c2)n(S(=O)(=O)c2ccc(C(F)F)cc2)c2ccc(F)cc12 [11/14] | < 100 | < 100 |
| O=C(O)c1ccc(-c2cccc(-c3c(-c4c(C(F)F)cccc4C(F)F)c4cc(F)ccc4n3S(=O)(=O)c3ccc(C(F)F)cc3)c2)c(Cl)c1 [11/15] | < 100 | < 100 |
| N#Cc1sccc1-c1c(-c2cccc(-c3ccc(C(=O)O)cc3Cl)c2)n(S(=O)(=O)c2ccc(F)cc2)c2ccc(F)cc12 [11/18] | 100 to 1000 | < 100 |
| Cc1ccc(S(=O)(=O)n2c(-c3cccc(-c4ccc(C(=O)O)cc4Cl)c3)c(-c3ccsc3C#N)c3cc(F)ccc32)cc1F [11/19] | 100 to 1000 | < 100 |
| N#Cc1ccc(S(=O)(=O)n2c(-c3cccc(-c4ccc(C(=O)O)cc4Cl)c3)c(-c3ccsc3C#N)c3cc(F)ccc32)cc1 [11/20] | 100 to 1000 | < 100 |
| O=C(O)c1ccc(-c2cccc(-c3c(-c4ccsc4C(F)F)c4cc(F)ccc4n3S(=O)(=O)c3ccc(Cl)cc3)c2)c(Cl)c1 [11/21] | < 100 | < 100 |
| O=C(O)c1ccc(-c2cccc(-c3c(-c4ccsc4C(F)(F)F)c4cc(F)ccc4n3S(=O)(=O)c3ccc(C(F)F)cc3)c2)c(Cl)c1 [11/22] | < 100 | < 100 |
| Cc1n[nH]c(C)c1-c1c(-c2cccc(-c3ccc(C(=O)O)cc3Cl)c2)n(S(=O)(=O)c2ccc(C(F)F)cc2)c2ccc(F)cc12 [11/24] | 100 to 1000 | 100 to 1000 |
| O=C(O)c1ccc(-c2cccc(-c3c(-c4cn[nH]c4C(F)(F)F)c4cc(F)ccc4n3S(=O)(=O)c3ccc(C(F)F)cc3)c2)c(Cl)c1 [11/25] | 100 to 1000 | < 100 |
| N#Cc1ccccc1-c1c(-c2cccc(-c3ccc(C(=O)O)c4c3OCO4)c2)n(S(=O)(=O)c2ccc(C(F)F)cc2)c2ccc(F)cc12 [11/28] | < 100 | < 100 |
| COc1cc(C(=O)O)ccc1-c1cccc(-c2c(-c3ccccc3C#N)c3cc(F)ccc3n2S(=O)(=O)c2ccc(C(F)F)cc2)c1 [11/29] | < 100 | < 100 |
| N#Cc1cc(C(=O)O)ccc1-c1cccc(-c2c(-c3ccccc3C#N)c3cc(F)ccc3n2S(=O)(=O)c2ccc(C(F)F)cc2)c1 [11/30] | < 100 | < 100 |
| N#Cc1ccccc1-c1c(-c2cccc(-c3ccc(C(=O)O)cc3F)c2)n(S(=O)(=O)c2ccc(C(F)F)cc2)c2ccc(F)cc12 [11/31] | < 100 | < 100 |
| N#Cc1ccccc1-c1c(-c2cccc(-c3ccc(C(=O)O)c(O)c3Cl)c2)n(S(=O)(=O)c2ccc(C(F)F)cc2)c2ccc(F)cc12 [11/32] | < 100 | < 100 |
| N#Cc1cccc(F)c1-c1c(-c2cccc(-c3ccc(C(=O)O)cc3Cl)c2)n(S(=O)(=O)c2ccc(C(F)F)cc2)c2ccc(F)cc12 [11/34] | < 100 | < 100 |
| Cc1cccc(C(F)F)c1-c1c(-c2cccc(-c3ccc(C(=O)O)cc3Cl)c2)n(S(=O)(=O)c2ccc(C(F)F)cc2)c2ccc(F)cc12 [11/38] | < 100 | < 100 |

| Compound | EC50 [1] [nM] | EC50 (LXRβ) [nM] |
| --- | --- | --- |
| COc1cccnc1-c1c(-c2cccc(-c3ccc(C(=O)O)cc3Cl)c2)n(S(=O)(=O)c2ccc(C(F)F)cc2)c2ccc(F)cc12 [11/40] | 100 to 1000 | < 100 |
| O=C(O)c1ccc(-c2cccc(-c3c(-c4ncccc4OC(F)F)c4cc(F)ccc4n3S(=O)(=O)c3ccc(C(F)F)cc3)c2)c(Cl)c1 [11/41] | < 100 | < 100 |
| N#CC1=C(c2c(-c3cccc(-c4ccc(C(=O)O)cc4Cl)c3)n(S(=O)(=O)c3ccc(C(F)F)cc3)c3ccc(F)cc23)CCCC1 [11/42] | > 10000 | 100 to 1000 |
| O=C(O)c1ccc(-c2cccc(-c3c(-c4cccc5nncn45)c4cc(F)ccc4n3S(=O)(=O)c3ccc(C(F)F)cc3)c2)c(Cl)c1 [11/43] | 100 to 1000 | 100 to 1000 |
| O=C(O)c1ccc(-c2cccc(-c3c(-c4cccc5c4OCO5)c4cc(F)ccc4n3S(=O)(=O)c3ccc(C(F)F)cc3)c2)c(Cl)c1 [11/44] | < 100 | < 100 |
| COc1cc(-c2c(-c3cccc(-c4ccc(C(=O)O)cc4Cl)c3)n(S(=O)(=O)c3ccc(C(F)F)cc3)c3ccc(F)cc23)c2c(C#N)cnn2c1 [11/46] | < 100 | < 100 |
| Cn1cccc(-c2c(-c3cccc(-c4ccc(C(=O)O)cc4Cl)c3)n(S(=O)(=O)c3ccc(C(F)F)cc3)c3ccc(F)cc23)c1=O [11/47] | 100 to 1000 | 100 to 1000 |
| N#Cc1cccc(C#N)c1-c1c(-c2cccc(-c3ccc(C(=O)O)c(F)c3F)c2)n(S(=O)(=O)c2ccc(C(F)F)cc2)c2ccc(F)cc12 [11/52] | < 100 | < 100 |
| N#Cc1cccc(C#N)c1-c1c(-c2cccc(-c3c(F)c(F)c(C(=O)O)c(F)c3F)c2)n(S(=O)(=O)c2ccc(C(F)F)cc2)c2ccc(F)cc12 [11/54] | < 100 | < 100 |
| N#Cc1cccc(C#N)c1-c1c(-c2cccc(-c3ccc(C(=O)O)cc3Cl)c2)n(S(=O)(=O)c2ccc(Cl)cc2)c2ccc(F)cc12 [11/55] | < 100 | < 100 |
| N#Cc1cccc(C#N)c1-c1c(-c2cccc(-c3ccc(C(=O)O)cc3Cl)c2)n(S(=O)(=O)c2ccc(C(F)F)cc2)c2ccccc12 [11/56] | < 100 | < 100 |
| N#Cc1sccc1-c1c(-c2cccc(-c3ccc(C(=O)O)cc3Cl)c2)n(S(=O)(=O)c2ccc(C(F)F)nc2)c2ccc(F)cc12 [11/57] | < 100 | < 100 |
| N#Cc1cccc(C#N)c1-c1c(-c2cccc(C34CCC(C(=O)O)(CC3)CC4)c2)n(S(=O)(=O)c2ccc(C(F)F)cc2)c2ccc(F)cc12 [11/58] | < 100 | < 100 |
| CC(O)(C(=O)O)c1ccc(-c2cccc(-c3c(-c4c(C#N)cccc4C#N)c4cc(F)ccc4n3S(=O)(=O)c3ccc(C(F)F)cc3)c2)cc1 (stereo not drawn) [11/59] | < 100 | < 100 |
| N#Cc1cccc(C#N)c1-c1c(-c2cccc([C@H]3CC[C@@H](C(=O)O)CC3)c2)n(S(=O)(=O)c2ccc(C(F)F)cc2)c2ccc(F)cc12 [11/61] | 100 to 1000 | < 100 |
| N#Cc1cccc(C#N)c1-c1c(-c2cccc(-c3ccc(C(=O)O)cc3F)c2)n(S(=O)(=O)C2CCC(C(F)(F)F)CC2)c2ccc(F)cc12 (stereo not drawn) [11/64] | 100 to 1000 | < 100 |
| N#Cc1cccc(C#N)c1-c1c(-c2cccc(-c3ccc(C(=O)O)cc3Cl)c2)n(S(=O)(=O)C2CC3CCC2C3)c2ccc(F)cc12 (stereo not drawn) [11/66] | 100 to 1000 | < 100 |
| N#Cc1cncc(C#N)c1-c1c(-c2cccc(-c3ccc(C(=O)O)cc3Cl)c2)n(S(=O)(=O)c2ccc(C(F)F)cc2)c2ccc(F)cc12 [11/67] | 100 to 1000 | < 100 |
| Cn1ccc(-c2c(-c3cccc(-c4ccc(C(=O)O)cc4Cl)c3)n(S(=O)(=O)c3ccc(C(F)F)cc3)c3ccc(F)cc23)c1C#N [11/68] | < 100 | < 100 |
| O=C(O)C1CC1c1cccc(-c2c(-c3c(Cl)cccc3Cl)c3cc(F)ccc3n2S(=O)(=O)c2ccc(C(F)F)cc2)c1 (stereo not drawn) [11/69] | < 100 | < 100 |
| Cc1ccc(S(=O)(=O)n2c(-c3cccc(-c4ccc(C(=O)O)c(C)c4Cl)c3)c(-c3ccsc3C#N)c3cc(F)ccc32)cc1 [12/1] | 100 to 1000 | < 100 |
